Values after ≈ are worked out from the molar mass of the structure shown.
Test system: sensitive Plutella strain
Assay: Control of sensitive Plutella strain
Type: in vivo
Details: 80% control, on average, read-out: concentration controlling the sensitive Plutella strain at 80%

## CNC(=O)c1cc(Cl)cc(C)c1NC(=O)c1cc(Br)nn1-c1ncccc1Cl [chlorantraniliprole]
  EC80: 0.25 µg/mL (≈ 0.517 µM)

Source: EP4197333A1, “METHOD FOR C[…] RESISTANT PESTS & COMPOUNDS THEREFOR” (Syngenta Crop Protection AG, priority 2021, dated 2023)
